We go through 27 compounds from patent US9630961B2, “Arginine methyltransferase inhibitors and uses thereof” (Epizyme, Inc., priority 2013, dated 2017).

The experiment has as its target T1, PRMT6 (Homo sapiens, UniProt Q96LA8).
T1 construct: Flag-PRMT6-His; made in house; host or cells: HEK 293F cells (BacMam virus)
The experiment can be described thus: PRMT6 Biochemical Assay (3H-SAM Flashplate, peptide substrate). The note with it: 30 min preincubation, room temperature. An excerpt: S-adenosylmethionine (SAM), S-adenosylhomocysteine (SAH), bicine, Tween20, dimethylsulfoxide (DMSO), bovine skin gelatin (BSG), sodium butyrate and Tris(2-carboxyethyl)phosphine hydrochloride solution (TCEP) were purchased from Sigma-Aldrich at the highest level of purity possible. ^3H-SAM was purchase from American Radiolabeled Chemicals with a specific activity of 80 Ci/mmol. 384-well streptavidin Flashplates were purchased from PerkinElmer.
Peptide representative of human histone H4 residues 36-50 was synthesized with an N-terminal linker-affinity tag motif and a C-terminal amide cap by 21st Century Biochemicals. The peptide was purified by high-performance liquid chromatography (HPLC) to greater than 95% purity and confirmed by liquid chromatography mass spectrometry (LC-MS). The sequence was Biot-Ahx-[…]-amide and contained a monomethylated lysine at position 44 (SEQ ID NO.:5).
Full-length human PRMT6 (NM_018137.2) transcript clone was amplified from an HEK 293 cDNA library, incorporating a flanking 5′ sequence encoding a FLAG tag ([…]) (SEQ ID NO.:6) fused directly to Ser 2 of PRMT6 and a 3′ sequence encoding a hexa His sequence (HHHHHH) fused directly to Asp 375. The amplified gene was subcloned into pFastBacMam (Viva Biotech).
Recombinant baculovirus were generated according to Bac-to-Bac kit instructions (Life Technologies). […] Infections were carried out at 37° C. for 48 hours, harvested by centrifugation, and stored at −80° C. for purification.
Column was washed with 20 mM imidazole in the same buffer and Flag-PRMT6-His was eluted with 150 mM imidazole. Pooled fractions were dialysed against buffer Ni-A and further purified by anti-flag M2 affinity chromatography. Flag-PRMT6-His was eluted with 200 ug/ml FLAG peptide in the same buffer. Pooled fractions were dialysed in 20 mM Tris, 150 mM NaCl, 10% glycerol and 5 mM β-mercaptoethanol, pH 7.8. The purity of recovered protein was 95%.
General Procedure for PRMT6 Enzyme Assays on Peptide Substrates.
The assays were all performed in a buffer consisting of 20 mM Bicine (pH=7.6), 1 mM TCEP, 0.005% BSG, and 0.002% Tween 20, prepared on the day of use. Compounds in 100% DMSO (1 ul) were spotted into a polypropylene 384-well V-bottom plates (Greiner) using a Platemate Plus outfitted with a 384-channel head (Thermo Scientific). DMSO (1 ul) was added to Columns 11, 12, 23, 24, rows A-H for the maximum signal control and 1 ul of SAH, a known product and inhibitor of PRMT6, was added to columns 11, 12, 23, 24, rows I-P for the minimum signal control. A cocktail (40 ul) containing the PRMT6 enzyme was added by Multidrop Combi (Thermo-Fisher). The compounds were allowed to incubate with PRMT6 for 30 min at room temperature, then a cocktail (10 ul) containing SAM and peptide was added to initiate the reaction (final volume=51 ul). The final concentrations of the components were as follows: PRMT6 was 1 nM, ^3H-SAM was 200 nM, non-radiolabeled SAM was 250 nM, peptide was 75 nM, SAH in the minimum signal control wells was 1 mM, and the DMSO concentration was 2%. The assays were stopped by the addition of non-radiolabeled SAM (10 ul) to a final concentration of 400 uM, which dilutes the ^3H-SAM to a level where its incorporation into the peptide substrate is no longer detectable. 50 ul of the reaction in the 384-well polypropylene plate was then transferred to a 384-well Flashplate and the biotinylated peptides were allowed to bind to the streptavidin surface for at least 1 hour before being washed once with 0.1% Tween20 in a Biotek ELx405 plate washer. The plates were then read in a PerkinElmer TopCount plate reader to measure the quantity of ^3H-labeled peptide bound to the Flashplate surface, measured as disintegrations per minute (dpm) or alternatively, referred to as counts per minute (cpm).
Where dpm=disintegrations per minute, cmpd=signal in assay well, and min and max are the respective minimum and maximum signal controls. […]

T1 sequence (Q96LA8 with tags, fused parts or gaps): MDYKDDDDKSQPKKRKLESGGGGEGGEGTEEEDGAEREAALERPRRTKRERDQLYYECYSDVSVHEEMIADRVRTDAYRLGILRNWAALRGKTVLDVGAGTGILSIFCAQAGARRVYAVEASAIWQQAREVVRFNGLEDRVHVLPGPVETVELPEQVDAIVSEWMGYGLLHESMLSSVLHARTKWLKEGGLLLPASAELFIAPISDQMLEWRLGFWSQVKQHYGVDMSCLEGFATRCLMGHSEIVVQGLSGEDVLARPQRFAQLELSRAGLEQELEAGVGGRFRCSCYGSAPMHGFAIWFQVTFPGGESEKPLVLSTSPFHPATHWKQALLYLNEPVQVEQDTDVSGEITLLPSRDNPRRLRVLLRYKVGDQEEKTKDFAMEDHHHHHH

Turning to `CN(CCN)Cc1c[nH]nc1-c1ccsc1` [Compound 3], the half-inhibitory concentration (IC50) (usually the concentration at which inhibition is half-maximal) is no more than 0.1 µM. As to `CN(CCN)Cc1c[nH]nc1-c1cncnc1` [Compound 4], the IC50 was in the range of 0.101 to 1 µM. Compound `CN(CCN)Cc1c[nH]nc1-c1cccs1` [Compound 5] returned an IC50 of 0.101 to 1 µM.

In turn, `CN(CCN)Cc1c[nH]nc1-c1ccco1` [Compound 6] showed an IC50 of 0.101 to 1 µM. To `CN(CCN)Cc1c[nH]nc1-c1ccoc1` [Compound 7] belongs 0.101 to 1 µM; to `CN(CCN)Cc1c[nH]nc1-c1cnn(C)c1` [Compound 8], no more than 0.1 µM; to `CN(CCN)Cc1c[nH]nc1-c1ccc2scnc2c1` [Compound 9], no more than 0.1 µM. Compound `Cc1noc(C)c1-c1n[nH]cc1CN(C)CCN` [Compound 10] came in with an IC50 of no less than 10 µM. `COc1ncc(-c2n[nH]cc2CN(C)CCN)cn1` [Compound 11] returned an IC50 of 0.101 to 1 µM. For `CN(CCN)Cc1c[nH]nc1-c1cn[nH]c1` [Compound 12], the IC50 fell in the range of 0.101 to 1 µM.

In turn, `CN(CCN)Cc1c[nH]nc1-c1cnc2[nH]ccc2c1` [Compound 13] returned an IC50 of no more than 0.1 µM. To `CN(CCN)Cc1c[nH]nc1-c1cc[nH]n1` [Compound 14] belongs 1.01 to 3 µM; to `CN(CCN)Cc1c[nH]nc1-c1ccnn1C` [Compound 15], 1.01 to 3 µM. For the compound `CCn1cc(-c2n[nH]cc2CN(C)CCN)cn1` [Compound 16], the IC50 is no more than 0.1 µM.

`CN(CCN)Cc1c[nH]nc1-c1cnn(-c2ccccc2)c1` [Compound 17] yielded a half-inhibitory concentration (IC50) of no more than 0.1 µM.

Turning to `CN(CCN)Cc1c[nH]nc1-c1cnn(CCO)c1` [Compound 18], the IC50 is no more than 0.1 µM. `CN(CCN)Cc1c[nH]nc1-c1ccc2cnn(C)c2c1` [Compound 19, N^1-methyl-N^1-((3-(1-methyl-1H-indazol-6-yl)-1H-pyrazol-4-yl)methyl)ethane-1,2-diamine] had an IC50 of no more than 0.1 µM. Turning to `CN(CCN)Cc1c[nH]nc1-c1ccc2ncnn2c1` [Compound 20], the IC50 was no more than 0.1 µM. To `CN(CCN)Cc1c[nH]nc1-c1ccc2nccn2c1` [Compound 21, N^1-((3-(imidazo[1,2-a]pyridin-6-yl)-1H-pyrazol-4-yl)methyl)-N^1-methylethane-1,2-diamine] belongs no more than 0.1 µM. In turn, `CC(C)n1cc(-c2n[nH]cc2CN(C)CCN)cn1` [Compound 22] had a concentration for half-maximal inhibition (IC50) of no more than 0.1 µM. As to `CC(C)Cn1cc(-c2n[nH]cc2CN(C)CCN)cn1` [Compound 23, N^1-((2′-isobutyl-3,4′-bi(1H-pyrazol)-4-yl)methyl)-N^1-methylethane-1,2-diamine], the IC50 is no more than 0.1 µM.

Consider `CN(CCN)Cc1c[nH]nc1-c1cnn(Cc2ccccc2)c1` [Compound 24, N^1-((1′-benzyl-3,4′-bi(1H-pyrazol)-4-yl)methyl)-N^1-methylethane-1,2-diamine], for which the IC50 is no more than 0.1 µM. To `Cc1n[nH]c(C)c1-c1n[nH]cc1CN(C)CCN` [Compound 25] belongs no less than 10 µM; to `CN(CCN)Cc1c[nH]nc1-c1ccc2[nH]ncc2c1` [Compound 27, N^1-((3-(1H-indazol-5-yl)-1H-pyrazol-4-yl)methyl)-N^1-methylethane-1,2-diamine], no more than 0.1 µM. Consider `CN(CCN)Cc1c[nH]nc1-c1cnc(C2CC2)nc1` [Compound 28], for which the IC50 lay in the range of 0.101 to 1 µM.

Consider `CN(CCN)Cc1c[nH]nc1-c1ccc[nH]1` [Compound 29], for which the IC50 was 1.01 to 3 µM. Take `CN(CCN)Cc1c[nH]nc1-c1cccc2[nH]ncc12` [Compound 30]: the IC50 is no more than 0.1 µM.
